One data set deals with PKA (Homo sapiens, UniProt P17612). The following applies: cited from earlier work.
The target in the next data set is Protein Kinase C (PKC). The following applies: cited from earlier work.
For data set [1], the system named is PSMA positive human prostate tumor cells. Nature of the data set: In vitro growth of PSMA positive prostate tumor cells with a PSMA inhibitor. It is filed as cell-based. The following applies: in the presence of high concentrations of the inhibitor.
The target in another data set is T1, PSMA (Homo sapiens, UniProt Q04609).
T1 construct: PSMA was prepared from LNCaP prostatic carcinoma cells as described by Pinto J. T. et al; endogenous in cells; host or cells: LNCaP prostatic carcinoma cells
Nature of the data set: Inhibition of PSMA, radiolabelled N-acetylaspartylglutamate as substrate, generation of glutamic acid monitored. It is filed as biochemical. The procedure: PSMA was prepared from LNCaP prostatic carcinoma cells as described by Pinto J. T. et al., Clinical Cancer Res. Vol.2 p.1445 (1996). The enzyme was assayed employing radiolabelled N-acetylaspartylglutamate as a substrate and monitoring the generation of glutamic acid in the presence of varying concentrations of Compound 1 or 1.1. […] Compound 1.1 inhibited the enzyme 50% at 3.4 nM.

The conditions of data set [2]: read-out: IC50 (cytotoxin); cited from earlier work.
For data set [3], the target named is dihydroorotic acid dehydrogenase (Homo sapiens, UniProt Q02127). The following applies: cited from earlier work.
In a further data set the test system is IMP dehydrogenase. Particulars: cited from earlier work.

Like-named read-outs stand apart in the source and are kept apart here.

Broadly, the Ki is the equilibrium dissociation constant of an inhibitor or competing ligand from its target.

T1 sequence (Q04609 whole entry): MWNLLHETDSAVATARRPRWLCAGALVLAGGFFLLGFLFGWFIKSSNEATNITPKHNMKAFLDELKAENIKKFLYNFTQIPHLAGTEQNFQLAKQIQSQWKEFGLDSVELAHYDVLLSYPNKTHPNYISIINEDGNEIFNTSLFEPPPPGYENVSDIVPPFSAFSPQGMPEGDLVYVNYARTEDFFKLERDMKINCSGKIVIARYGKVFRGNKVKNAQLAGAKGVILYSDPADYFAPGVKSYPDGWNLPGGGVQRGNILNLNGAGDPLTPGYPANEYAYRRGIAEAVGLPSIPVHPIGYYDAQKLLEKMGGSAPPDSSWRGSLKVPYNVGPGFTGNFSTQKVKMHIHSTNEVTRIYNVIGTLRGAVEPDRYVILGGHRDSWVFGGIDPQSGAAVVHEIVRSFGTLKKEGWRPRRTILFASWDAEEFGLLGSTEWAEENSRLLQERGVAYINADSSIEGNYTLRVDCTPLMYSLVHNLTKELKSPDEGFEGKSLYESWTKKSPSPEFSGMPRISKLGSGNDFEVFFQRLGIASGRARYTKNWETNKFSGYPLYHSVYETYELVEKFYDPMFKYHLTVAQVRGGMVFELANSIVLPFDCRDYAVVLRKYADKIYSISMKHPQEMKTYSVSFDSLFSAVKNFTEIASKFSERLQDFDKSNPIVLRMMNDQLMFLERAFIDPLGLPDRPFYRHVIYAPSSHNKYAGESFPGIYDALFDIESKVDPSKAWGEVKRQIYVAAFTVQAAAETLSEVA
Sequence of dihydroorotic acid dehydrogenase (Q02127 whole entry): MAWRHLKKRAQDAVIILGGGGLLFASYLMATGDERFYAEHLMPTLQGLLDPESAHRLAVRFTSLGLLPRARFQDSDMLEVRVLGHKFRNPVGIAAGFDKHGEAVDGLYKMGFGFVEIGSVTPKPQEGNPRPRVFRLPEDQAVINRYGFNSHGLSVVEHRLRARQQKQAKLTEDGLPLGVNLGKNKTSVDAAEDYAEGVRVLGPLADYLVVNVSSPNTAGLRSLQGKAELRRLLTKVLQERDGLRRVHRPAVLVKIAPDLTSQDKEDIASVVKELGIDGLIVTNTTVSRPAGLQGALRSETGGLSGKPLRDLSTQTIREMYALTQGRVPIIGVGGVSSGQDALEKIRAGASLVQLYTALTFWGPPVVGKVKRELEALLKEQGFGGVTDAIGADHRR

As to 10″-deoxybalanol, the Ki was 4 nM at PKA and 640 nM on Protein Kinase C (PKC).

`O=C(O)CCC(CP(=O)(O)O)C(=O)O` (stereo not shown) [2-(phosphonomethyl)-pentanedioic acid]: the “growth of tumor cells in vitro” value in data set [1] is given as “readily grow”.

On PSMA, `O=C(O)CCC(CP(=O)(O)CCC(=O)NC(CCCCNC(=S)Nc1ccc(-c2c3ccc(=O)cc-3oc3cc(O)ccc23)c(C(=O)O)c1)C(=O)NCCc1ccc(O)cc1)C(=O)O` (stereo not shown) [Compound 1.1] came in with an IC50 of 3.4 nM and a Ki of 3.4 nM. On to `O=C(O)CCC(OP(=O)(O)OCCCOCCNC(=O)CCCCCNS(=O)(=O)c1ccc(C2=c3cc4c5c(c3Oc3c2cc2c6c3CCCN6CCC2)CCC[N+]=5CCC4)c(S(=O)(=O)[O-])c1)C(=O)O` (stereo not shown) [Compound 1], for which the IC50 on PSMA (PSMA prepared from LNCaP prostatic carcinoma cells, radiolabelled N-acetylaspartylglutamate substrate, read-out: concentration that inhibited the enzyme 50%) was 20 nM. In addition, at PSMA (PSMA prepared from LNCaP prostatic carcinoma cells, read-out: Ki for inhibition of PSMA), the Ki worked out at 20 nM. With `COc1c(C)cc2c(c1O)C1C3Cc4c(OC(C)=O)c(C)c5c(c4C(CN4C(=O)c6ccccc6C4=O)N3C(C#N)C(C2)N1C)OCO5` (stereo not shown) [Phthalascidin], the IC50 in data set [2] was 0.1 to 1 nM. Take `Cc1c(-c2ccc(-c3ccccc3F)cc2)nc2ccc(F)cc2c1C(=O)O` [brequinar]: the “level at which dihydroorotic acid dehydrogenase is inhibited” value in data set [3] was “nonamolar levels”. For the compound `COc1c(C)c2c(c(O)c1C/C=C(\C)CCC(=O)O)C(=O)OC2` [mycophenolic acid], the “level at which IMP dehydrogenase is inhibited” value with IMP dehydrogenase is listed as “nanomolar levels”.

The record behind these values is patent US20030138432A1, “Selective cellular targeting: multifunctional delivery vehicles, multifunctional prodrugs, use as antineoplastic drugs” (Drug Innovation & Design, Inc., priority 1999, published 2003).
